Read-outs that look alike come from different tables or passages of the source. Starred links: 1 amine or outer side, 2 acyl side, 3 side chain; linkers in the order of their positions; H or OH if unused. Positions of bridges follow the written chain, without caps; N, C: chain ends. Non-standard residues stand in square brackets, D forms with d. Residues, ends and D or L forms follow the SMILES beside them. Trp(6-OH,1-(4-HO2C-Ph)) = N[C@@H](Cc1cn(-c2ccc(C(=O)O)cc2)c2cc(O)ccc12)C(=O)O; Phe(3-OCH2COOH) = N[C@@H](Cc1cccc(OCC(=O)O)c1)C(=O)O; N(CH2CH2CO)Gly = O=C(CN(CCC(=O)[*:3])[*:1])[*:2]; Phe(4-COOH) = N[C@@H](Cc1ccc(C(=O)O)cc1)C(=O)O; Gly(N(CH2)3COOH) = O=C(O)CCCNCC(=O)O; X1 = CCCCCCC[C@H](N[*:1])C(=O)[*:2]; NMeF = CN[C@@H](Cc1ccccc1)C(=O)O; NMeDap = CN[C@@H](CN)C(=O)O; NMeA = CN[C@@H](C)C(=O)O; Sar = CNCC(=O)O
Columns and labels:
[1] = Muscle strength, body weight and serum creatine kinase in B10 mdx mice; format: in vivo, C57BL/10-mdx/Jcl mice; conditions: 10 mg/kg subcutaneous
Description: (§1) In this Example, the effect of the peptide Myostatin_99_Variant_07 (SEQ ID NO: 3), synthesized according to Example 1, on improvement of muscle strength in DMD model mice was evaluated using B10 mdx model mice (NPL 17).
(§2) To five-week-old male C57BL/10-mdx/Jcl (CLEA Japan, Inc.) mice, the peptide or solvent control (Vehicle) PBS was subcutaneously administered as shown in Table 11 three times a week or every day for 5 weeks.
(§3) Using a smart-type grip strength meter for rats and mice (MK-380V; Muromachi Kikai Co., Ltd.), forelimb and hindlimb grip strength measurements and body weight measurements were performed on the day of completion of the acclimation period (grouping day), and on Days 7, 14, 21, 27, and 33. The measurements were conducted with individual identification numbers blinded so that the examiner was unaware of the test conditions of the mice. The grip strength was measured seven times consecutively, and the average of five points, excluding the two points: the highest and lowest values, was used as individual data. The body weight was weighed using an electronic balance.
(§4) Serum creatine kinase (CK) concentrations (mean ± SEM) on Day 35, when the animals were euthanized, were also examined.

[2] = Distribution of peptide in skeletal muscle (plasma and quadriceps concentrations); format: in vivo; conditions: mouse, sc, 10 mg/kg subcutaneously, male CD1 mice; for level at 24 h: 24 hr after administration; for level at 48 h: 48 hr after administration; for level at 72 h: 72 hr after administration
Description: The peptide Myostatin_99_Variant_07 (SEQ ID NO: 3), synthesized according to Example 1, was administered subcutaneously at 10 mg/kg to male 6-8-week-old CD1 mice. Plasma and quadriceps concentrations were measured at 24, 48, and 72 hours after administration. […]
Note that plasma was separated from blood by centrifugation; 25% homogenate of tissue was prepared and deproteinized with 5% formic acid-containing acetonitrile; and the drug concentrations were determined using an LC/MS/MS system (LCMS-8060, Shimadzu Corporation).

GDF-11 [3] = target: T1, GDF-11 (Homo sapiens, UniProt O95390); test: Reporter gene assay for myostatin signaling in HepG2 cell line, Evaluation Procedure (1), GDF-11 inhibition; format: cell-based
T1 construct: purchased R&D systems 1958-GD-G8/CF
T1 sequence (O95390 299-407): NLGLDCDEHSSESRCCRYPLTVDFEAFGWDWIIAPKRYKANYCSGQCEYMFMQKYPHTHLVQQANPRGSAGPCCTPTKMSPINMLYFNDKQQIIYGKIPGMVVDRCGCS
Outline: (§5)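 HepG2 cells transfected with pGL3(CAGA)12-luciferase reporter, serum-starved in 0.1% BSA medium, then stimulated with myostatin or GDF-11 plus 4-fold peptide dilutions (0.006–100 nmol/L for myostatin, 0.12–2000 nmol/L for GDF-11) for 20–24 h at 37 °C. Luminescence read with One-Glo; IC50 calculated.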

Myostatin [4] = target: T2, Myostatin (Homo sapiens, UniProt O14793); test: Reporter gene assay for myostatin signaling in HepG2 cell line, Evaluation Procedure (1), myostatin inhibition; format: cell-based
T2 construct: active myostatin (also called mature myostatin) is a homodimer consisting of two C-terminal growth factor domains; purchased R&D systems 788-G8/CF
T2 sequence (O14793 267-375): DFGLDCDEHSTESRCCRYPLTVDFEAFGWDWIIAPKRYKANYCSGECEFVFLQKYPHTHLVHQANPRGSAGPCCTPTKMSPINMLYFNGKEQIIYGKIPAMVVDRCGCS
Outline: as §5

Myostatin [5] = test: as above; format: cell-based; conditions: Method A; GDF-11 IC50 versus Myostatin IC50
Outline: as §5

B10 mdx model mice = test: Improvement of muscle strength and inhibition of muscle necrosis in B10 mdx mice; format: in vivo, C57BL/10-mdx/Jcl mice; conditions: 10 mg/kg subcutaneous
Description: as §1, §2, §3, §4

GDF-11 [6] = test: Reporter gene assay for myostatin signaling in HepG2 cell line, Evaluation Procedure (1), GDF-11 inhibition; format: cell-based; conditions: GDF-11 IC50 relative to myostatin IC50, HepG2
Outline: as §5

[7] = plasma, read-out: Plasma concentration
[8] = quadriceps muscle, quadriceps, read-out: Intramuscular concentration

level at 24 h [2, 7]	level at 48 h [2, 7]	level at 72 h [2, 7]	level at 24 h [2, 8]	level at 48 h [2, 8]	level at 72 h [2, 8]	IC50 (GDF-11 [3]; Method A: GDF-11 10 ng/mL, read-out: IC50 (Luciferase) GDF-11 HepG2)	IC50 (Myostatin [4]; Method A: Myostatin 10 ng/mL, read-out: IC50 (Luciferase) Myostatin HepG2)	IC50 (GDF-11 [3]; HepG2, luciferase reporter, Evaluation Procedure (1), Method D, read-out: IC50 (Luciferase) GDP-11 HepG2)	IC50 (Myostatin [4]; HepG2, luciferase reporter, Evaluation Procedure (1), Method D)	SMILES	time-course change in grip strength ([1]; vs. PBS (Fig. 3))	time-course change in body weight ([1]; vs. Vehicle (Fig. 4))	Selectivity (Myostatin [5])	time-course change in grip strength (B10 mdx model mice; 3 times a week, vs. PBS Vehicle group, Fig. 3)	time-course change in body weight (B10 mdx model mice; 3 times a week, vs. Vehicle group, Fig. 4)	Serum creatine kinase (CK) concentrations (mean ± SEM) (B10 mdx model mice; Day 35, Vehicle group 3,836 ± 754 IU/L)	Selectivity (GDF-11 [6])
232 ng/mL	55 ng/mL	40 ng/mL	283 ng/mL	190 ng/mL	74 ng/mL	1050 nM	26.2 nM			CC[C@H](C)[C@@H]1NC(=O)[C@H](Cc2ccccc2)N(C)C(=O)[C@H](Cc2ccc(O)cc2)NC(=O)[C@H](Cc2c[nH]c3ccccc23)NC(=O)[C@H](C)NC(=O)CN(CCCC(=O)O)C(=O)CSC[C@H](C(=O)O)NC(=O)[C@H](Cc2ccccc2)N(C)C(=O)[C@H](C)N(C)C(=O)[C@H](CC(C)C)NC(=O)[C@H](Cc2ccccc2)N(C)C(=O)[C@H](CCCNC(=N)N)NC(=O)[C@H](Cc2ccc(C(=O)O)cc2)NC(=O)[C@H](Cc2ccc(O)cc2)NC(=O)CN(C)C1=O [Myostatin_99_Variant_07] ({CH2CO}-[Gly(N(CH2)3COOH)]AWY[NMeF]I[Sar]Y[Phe(4-COOH)]R[NMeF]L[NMeA][NMeF][dC]-OH; thioether N-15)	continuous increase in grip strength was observed	cause the body weight to continuously increase	40	continuous increase in grip strength	body weight to continuously increase	3,247 ± 558 IU/L	
								45.4 nM	0.12 nM	CCCCCCC[C@@H]1NC(=O)[C@H](Cc2ccccc2)N(C)C(=O)[C@H](CCCNC(=N)N)NC(=O)[C@H](Cc2ccc(C(=O)O)cc2)NC(=O)[C@H](Cc2cccc(OCC(=O)O)c2)NC(=O)[C@H]2CCCN2C(=O)[C@H]([C@@H](C)CC)NC(=O)[C@H](Cc2ccccc2)N(C)C(=O)[C@H](Cc2ccc(O)cc2)NC(=O)[C@H](Cc2cn(-c3ccc(C(=O)O)cc3)c3cc(O)ccc23)NC(=O)[C@H](C)NC(=O)CN2CCC(=O)NC[C@@H](C(=O)N(C)[C@@H](Cc3ccccc3)C(=O)N[C@H](C)C(=O)N(C)[C@@H](C)C2=O)N(C)C1=O [Myostatin_99_v489] (cyclo(A[Trp(6-OH,1-(4-HO2C-Ph))]Y[NMeF]I[dP][Phe(3-OCH2COOH)][Phe(4-COOH)]R[NMeF][X1][NMeDap][NMeF][dA][NMeA][N(CH2CH2CO)Gly]); lactam 12-16)							365.6

From patent EP4786487A1, “PEPTIDE” (Peptidream Inc, priority 2023, dated 2025)
